Results as given in patent publication US20220220106A1, “QUINOLINE COMPOUNDS AND PHARMACEUTICAL COMPOSITIONS AND USES THEREOF” (Academy of Military Medical Sciences, priority 2019, published 2022).

Tests used:
Format in all cases: cell-based
RD cells = assay: Detection of cytotoxicity in RD cells (CellTiter-Glo); conditions: for TD50: 4 days, CellTiter-Glo, median toxic dose
Method in brief: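 RD cells (1*10^5/mL) cultured 4 days at 37 °C with 10 compound concentrations from 3-fold dilution of a 400 μM pretreatment solution, final being 0.5 times that. Viability by CellTiter-Glo luminescence versus cell control; TD50 from S-curve fit; SI=TD50/IC50.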

mTORC1 = biological target: T1, mTORC1 (Homo sapiens, UniProt P42345); assay: Western blot, phosphorylation of Thr389 of p70S6K1 in RD cells (mTORC1 inhibition); conditions: 20 μM, 2 hours, Western blot (FIG. 1)
T1 construct: endogenous in cells; host or cells: RD cells
Protocol: (§1) In order to test the inhibitory activity of the synthesized compounds on the two mTOR complexes, the inhibitory activity experiments of mTORC1 and mTORC2 were carried out. Since mTORC1 and mTORC2 exerted their function by activating the phosphorylation of downstream substrates, the inhibitory activity of the compounds on mTORC1 and mTORC2 could be determined by detecting the phosphorylation levels of the Thr389 site of mTORC1 downstream substrate p70S6K1 and the Ser473 site of mTORC2 downstream substrate Akt.
(§2) Pretreatment of Compound:
(§3) (1) RD cells were cultured in DMEM medium containing 10% FBS and 1×PS (penicillin and streptomycin were at concentrations 100 IU and 100 μg/mL, respectively) at 37° C. and 5% CO2.
(§4) (2) The RD cells (5×10^5 cells/2 mL medium) were inoculated into a 6-well plate and incubated at 37° C. and 5% CO2 for 24 hours.
(§5) (3) The cells were washed once with PBS, and the cells were cultured in serum-free medium without nutrients overnight.
(§6) (4) Formulation of compounds: […]
(§7) Preparation of insulin medium: Insulin was diluted in DMEM medium containing 10% FBS and 1×PS so that the final concentration of insulin was 167 nM.
(§8) Pretreatment of compound to be tested: The compound was dissolved in DMSO so that the concentration of the test compound was 20 mM, and the compound was diluted in 167 nM insulin medium to reach a concentration of 20 μM.
(§9) Preparation of rapamycin solution: Rapamycin was dissolved in DMSO to a concentration of 10 mM, and the rapamycin was diluted in 167 nM insulin medium to reach a concentration of 20 μM.
(§10) (5) The serum-free medium in each well was removed.
(§11) (6) 2 mL of complete medium containing DMSO was added to each well as a control carrier. The final concentration of DMSO was 0.2%.
(§12) (7) 2 mL of 20 μM rapamycin solution and 20 μM the compound to be tested were added to the designated wells, respectively. The final concentration of DMSO was 0.2%.
(§13) (8) The cells were incubated for 2 hours at 37° C. and 5% CO2.
(§14) Protein extraction and concentration determination:
(§15) (1) The cells were washed once with refrigerated PBS, and then the PBS was discarded.
(§16) (2) 150 μL of cell extraction buffer (RIPA, […], catalog number: C1053) was transferred into each well to lyse the cells, and then the resulting cell solution were incubated on ice for 30 minutes.
(§17) (3) Centrifugation was performed at 14000 rpm (13000× g) for 30 minutes at 4° C.
(§18) (4) The supernatant was transferred into a new eppendorf tube, and the cell lysate was stored at −80° C. before testing.
(§19) (5) The protein concentration was determined by BCA method.
(§20) Preparation of Buffer Solutions:
(§21) (1) 100× Protease inhibitor (Beyotime, catalog number: P1005): 1 mL of redistilled water was added to the protease inhibitor and stirred gently until the solid was completely dissolved.
(§22) (2) Lysis Buffer: […] of 100× protease inhibitor and 2× phosphatase inhibitor Cocktails PhosSTOP (Beyotime, catalog number: P1082) were added to 100 mL of the cell extract, and stirred gently until it was completely dissolved.
(§23) (3) Electrophoresis Running Buffer:
(§24) 10×MOPS buffer: 52.33 g of MOPS, 30.29 g of Tris base, 10 mL of 0.5 mol/L EDTA (pH 8.5) and 5 g of SDS was dissolved in 400 mL of redistilled water, stirred to dissolve, and the pH was adjusted to 7.5, then redistilled water was added again to reach a volume of 500 mL; 1×MOPS: 100 mL of 10×MOPS was diluted with redistilled water to 1000 mL.
(§25) (4) 1× Transfer Buffer: […] of 10× transfer buffer (144 g of glucine, 30.3 g of trisbase, and distilled water were mixed to reach a volume of 1 L) and 400 mL of methanol were dissolved in 1500 mL of redistilled water, and then the redistilled water was added to reach a volume of 2000 mL. […]

mTORC2 = biological target: T2, mTORC2 (Homo sapiens, UniProt P42345); assay: Western blot, phosphorylation of Ser473 of Akt in RD cells (mTORC2 inhibition); conditions: 20 μM, 2 hours, Western blot (FIG. 1)
T2 construct: endogenous in cells; host or cells: RD cells
Protocol: as §1, §2, §3, §4, §5, §6, §7, §8, §9, §10, §11, §12, §13, §14, §15, §16, §17, §18, §19, §20, §21, §22, §23, §24, §25

Row | SMILES | TD50 (RD cells) | p70 phosphorylation expression level (mTORC1) | phosphorylation expression level of Akt (mTORC2) | toxicity, in words (RD cells)
1 | CN1CCN(c2ccc(-c3ccc4ncc5ccc(=O)n(-c6cccc(C(F)(F)F)c6)c5c4c3)cn2)CC1 [HTL-7-17, 9-{3-[6-(4-methylpiperazin-1-yl)pyridyl]}-2-oxo-1-[3-(trifluoromethyl)phenyl]-1,2-dihydrobenzo[h][1,6]naphthyridine] | 0.18 ± 0.15 µM | significantly down-regulate | significantly down-regulate | –
2 | Nc1cccc(Nc2ccc3ncc4ccc(=O)n(-c5cccc(C(F)(F)F)c5)c4c3c2)c1 [HTL-6-11, 9-(3-aminophenyl)imino-2-oxo-1-[3-(trifluoromethyl)phenyl]-1,2-dihydrobenzo[h][1,6]naphthyridine] | 7.58 ± 1.24 µM | significantly down-regulate | significantly down-regulate | –
3 | O=c1ccc2cnc3ccc(-c4ccc(F)nc4)cc3c2n1-c1cccc(C(F)(F)F)c1 [HTL-7-01, 9-[3-(6-fluoro)pyridyl]-2-oxo-1-[3-(trifluoromethyl)phenyl]-1,2-dihydrobenzo[h][1,6]naphthyridine] | 0.23 ± 0.33 µM | significantly down-regulate | significantly down-regulate | –
4 | COc1cc(-c2ccc3ncc4ccc(=O)n(-c5cccc(C(F)(F)F)c5)c4c3c2)cnc1N [HTL-7-19, 9-[3-(6-amino-5-methoxy)pyridyl]-2-oxo-1-[3-(trifluoromethyl)phenyl]-1,2-dihydrobenzo[h][1,6]naphthyridine] | 0.06 ± 0.02 µM | significantly down-regulate | significantly down-regulate | –
5 | CCCCC(=O)Nc1ccc(-c2ccc3ncc4ccc(=O)n(-c5cccc(C(F)(F)F)c5)c4c3c2)cn1 [HTL-7-08, 9-[3-(6-valerylamino)pyridyl]-2-oxo-1-[3-(trifluoromethyl)phenyl]-1,2-dihydrobenzo[h][1,6]naphthyridine] | 0.70 ± 0.48 µM | significantly down-regulate | significantly down-regulate | –
6 | O=C(Nc1ccc(-c2ccc3ncc4ccc(=O)n(-c5cccc(C(F)(F)F)c5)c4c3c2)cn1)OCc1ccccc1 [HTL-7-14, 9-[3-(6-benzyloxyamido)pyridyl]-2-oxo-1-[3-(trifluoromethyl)phenyl]-1,2-dihydrobenzo[h][1,6]naphthyridine] | 1.00 ± 0.81 µM | significantly down-regulate | significantly down-regulate | –
7 | COc1ncc(-c2ccc3ncc4ccc(=O)n(-c5cccc(C(F)(F)F)c5)c4c3c2)cn1 [HTL-7-06, 9-[5-(2-methoxy)pyrimidyl]-2-oxo-1-[3-(trifluoromethyl)phenyl]-1,2-dihydrobenzo[h][1,6]naphthyridine] | 0.17 ± 0.06 µM | significantly down-regulate | significantly down-regulate | –
8 | O=C1Cc2cc(-c3ccc4ncc5ccc(=O)n(-c6cccc(C(F)(F)F)c6)c5c4c3)ccc2N1 [HTL-7-04, 9-[5-(2-oxo)indolyl]-2-oxo-1-[3-(trifluoromethyl)phenyl]-1,2-dihydrobenzo[h][1,6]naphthyridine] | 10.27 ± 7.81 µM | significantly down-regulate | significantly down-regulate | –
9 | O=c1ccc2cnc3ccc(-c4cccnc4F)cc3c2n1-c1cccc(C(F)(F)F)c1 [HTL-6-48, 9-[3-(2-fluoro)pyridyl]-2-oxo-1-[3-(trifluoromethyl)phenyl]-1,2-dihydrobenzo [h][1,6]naphthyridine] | 1.23 ± 1.20 µM | significantly down-regulate | significantly down-regulate | relatively low toxicity
10 | O=c1ccc2cnc3ccc(-c4ccc(N5CCOCC5)nc4)cc3c2n1-c1cccc(C(F)(F)F)c1 [HTL-7-18, 9-[3-(6-morpholin-4-yl)pyridyl]-2-oxo-1-[3-(trifluoromethyl)phenyl]-1,2-dihydrobenzo[h][1,6]naphthyridine] | 2.91 ± 1.16 µM | significantly down-regulate | significantly down-regulate | –
